Data from patent publication US20110118229A1, “2-ARYLMETHYLAZETIDINE-CARBAPENEM-3-CARBOXYLIC ACID ESTER DERIVATIVE OR ITS SALT, PROCESS FOR THE PREPARATION THEREOF AND PHARMACEUTICAL COMPOSITION COMPRISING THE SAME” (KUKJE PHARM. IND. CO., LTD., priority 2007, published 2011).
Converted amounts (≈) assume the structure as drawn.

Columns and labels:
[1] = Test of Pharmacokinetics in mice (blood concentration by bioassay); conditions: I.C.R mice, 40 mg/kg; for AUC (area under blood concentration curve): bioassay
Description: The pharmacokinetics of the compounds of the present invention was determined using mice. […] Blood samples were collected from mice tails at 10 min., 20 min., 30 min., 45 min., 1 hour, 1.5 hours, 2 hours, 3 hours and 4 hours after the administration. […] Blood samples were collected from mice tails in the same manner described above.
The concentrations of each compound in blood were measured using bioassay methods: Agar plate was prepared with agar medium containing 1% Streptococcus Pyogenes 77A culture solution, and the blood samples and the diluted standards (each of which were obtained by dilution of the already-known concentration by two times) were added to wells formed on the plates. The plate was stored at 4° C. for 1 hour to is allow the sample to spread, and incubated at 37° C. for 18 hours. Diameters of each inhibition-circle were measured and then the concentration of the compounds in blood was calculated, based on the calibration curve obtained from the diluted standards.

I.C.R. mice = assay: Acute Toxicity Test, oral, mice; type: in vivo; conditions: observed 7 days
Description: The acute toxicity of the compound of Example 1 was tested using several groups of I.C.R. mice each of 10 mice. 500 mg/kg, 1,000 mg/kg, and 2,000 mg/kg doses of the compound of Example 1 were orally administered. […] Thus, LD50 was placed at a level higher than 2,000 mg/kg. The compound of Example 1 is thus a largely non-toxic antibiotic.
In addition, acute toxicity of the compounds of Examples 10 and 17 was tested using two groups of I.C.R. mice each of 5 mice/2 groups. 1,000 mg/kg, 2,000 mg/kg, and 3,000 mg/kg doses of the compounds of Examples 10 to 17 were orally administered. […] Thus, LD50 was placed at a level higher than 3,000 mg/kg. Therefore, the compounds of Examples 10 to and 17 are non-toxic antibiotics.

[2] = Chemical Stability Test (HPLC purity on storage); type: physicochemical
Description: 500 mg of the compound prepared in Example 10 was charged into a glass bottle, and HPLC purities of the compound were measured at the condition of 40° C. and a humidity of 75%, at 1 week, 2 week, 3 week, and 1 month. The HPLC purities were obtained by comparing each of the measured HPLC amounts with the initial HPLC amount.

[3] = tested on: Moraxella catarrhalis AMP R(3); assay: Minimum Inhibitory Concentration (MIC); type: cell-based; parameters: unit not given here; conditions: 3 strains
Source text: (§1) The metabolite has a wide spectrum of antibacterial activities against Gram-negative and Gram-positive bacteria and excellent antibacterial activities against resistant bacteria such as methicillin-resistant Staphylococcus aurus (MRSA) and quinolone-resistant strains (QRS), as in WO2006/025634 by the present inventors.

[4] = tested on: Klebsiella pneumoniae (4); assay: Minimum Inhibitory Concentration (MIC); type: cell-based; parameters: unit not given here; conditions: 4 strains
Source text: as §1

[5] = tested on: Streptococcus Levo. R (4); assay: Minimum Inhibitory Concentration (MIC); type: cell-based; parameters: unit not given here; conditions: 4 strains
Source text: as §1

[6] = tested on: Staphylococcus aureus (5), QRS; assay: Minimum Inhibitory Concentration (MIC); type: cell-based; parameters: unit not given here; conditions: 5 strains
Source text: as §1

[7] = tested on: Staphylococcus aureus (10), MRSA; assay: Minimum Inhibitory Concentration (MIC); type: cell-based; parameters: unit not given here; conditions: 10 strains
Source text: as §1

Escherichia coli (4) = assay: Minimum Inhibitory Concentration (MIC); type: cell-based; parameters: unit not given here; conditions: 4 strains
Source text: as §1

[8] = tested on: Streptococcus Levo. S (4); assay: Minimum Inhibitory Concentration (MIC); type: cell-based; parameters: unit not given here; conditions: 4 strains
Source text: as §1

[9] = tested on: Streptococcus pyogenes (2); assay: Minimum Inhibitory Concentration (MIC); type: cell-based; parameters: unit not given here; conditions: 2 strains
Source text: as §1

[10] = tested on: Staphylococcus aureus (2); assay: Minimum Inhibitory Concentration (MIC); type: cell-based; conditions: 2 strains
Source text: as §1

[11] = tested on: Salmonella typhimurium 179; assay: Minimum Inhibitory Concentration (MIC); type: cell-based; conditions: strain 179
Source text: as §1

[12] = tested on: Enterobacter cloacae P 99(2)3; assay: Minimum Inhibitory Concentration (MIC); type: cell-based
Source text: as §1

[13] = tested on: Klebsiella pneumoniae ATCC 13883; assay: Minimum Inhibitory Concentration (MIC); type: cell-based
Source text: as §1

[14] = tested on: Streptococcus pneumoniae Pen. S (4); assay: Minimum Inhibitory Concentration (MIC); type: cell-based; conditions: 4 strains
Source text: as §1

GBBS ATCC 12386 = assay: Minimum Inhibitory Concentration (MIC); type: cell-based
Source text: as §1

[15] = tested on: Moraxella catarrhalis AMP S(3); assay: Minimum Inhibitory Concentration (MIC); type: cell-based; conditions: 3 strains
Source text: as §1

[16] = tested on: Streptococcus ATCC 496 (4); assay: Minimum Inhibitory Concentration (MIC); type: cell-based
Source text: as §1

[17] = tested on: Streptococcus pneumoniae Pen. R (4); assay: Minimum Inhibitory Concentration (MIC); type: cell-based; conditions: 4 strains
Source text: as §1

Klebsiella oxytoca 1082 = assay: Minimum Inhibitory Concentration (MIC); type: cell-based; conditions: strain 1082
Source text: as §1

[18] = tested on: Streptococcus faecium (1); assay: Minimum Inhibitory Concentration (MIC); type: cell-based; conditions: 1 strain
Source text: as §1

[19] = tested on: Enterobacter cloacae ATCC 13880; assay: Minimum Inhibitory Concentration (MIC); type: cell-based
Source text: as §1

[20] = tested on: Staphylococcus aureus ATCC 29213; assay: Minimum Inhibitory Concentration (MIC); type: cell-based
Source text: as §1

[21] = oral, 500, 1,000 and 2,000 mg/kg
[22] = oral, 1,000, 2,000 and 3,000 mg/kg

C[C@@H](O)[C@H]1C(=O)N2C(C(=O)OCOC(=O)C(C)(C)C)=C(SC3CN(Cc4ccc(F)cc4)C3)[C@H](C)[C@H]12 [Example 1, pivaloyloxymethyl(1R,5S,6S)-2-[(1-(4-fluorobenzyl)azetidin-3-yl)thio]-6-[(R)-1-hydroxyethyl]-1-methyl-carbapen-2-em-3-carboxylate]
ratio of oral/subcutaneous AUCs [1]: about 52% | Cmax (maximum blood concentration) ([1]; PO): 88.1 µg/mL | T1/2 (half time of blood concentration) ([1]; PO): 0.931 h | Tmax (time at the point of maximum blood concentration) ([1]; PO): 0.38 h | AUC (area under blood concentration curve) ([1]; PO): 117000 ng·h/mL | Cmax (maximum blood concentration) ([1]; SC): 97.9 µg/mL | T1/2 (half time of blood concentration) ([1]; SC): 6.28 h | Tmax (time at the point of maximum blood concentration) ([1]; SC): 1.76 h | AUC (area under blood concentration curve) ([1]; SC): 226000 ng·h/mL | LD50 (I.C.R. mice; [21]): higher than 2,000 mg/kg | body temperature change and weight change (I.C.R. mice; [21]): no distinct body temperature change nor weight loss were observed | death (I.C.R. mice; [21]): no mice died

C[C@@H](O)[C@H]1C(=O)N2C(C(=O)OCOC(=O)C(C)(C)C)=C(SC3CN(Cc4ccc(F)cc4)C3)[C@H](C)[C@H]12.O=P(O)(O)O [Example 10, Phosphoric Acid Salt of pivaloyloxymethyl(1R,5S,6S)-2-[(1-(4-fluorobenzyl)azetidin-3-yl)thio]-6-[(R)-1-hydroxyethyl]-1-methyl-carbapen-2-em-3-carboxylate]
HPLC Purity ([2]; 40° C., humidity 75%, 1 month): 99.69% | HPLC Purity ([2]; 40° C., humidity 75%, 1 week): 99.85% | HPLC Purity ([2]; 40° C., humidity 75%, 2 week): 99.78% | HPLC Purity ([2]; 40° C., humidity 75%, 3 week): 99.74% | HPLC Purity ([2]; Initial): 99.83% | body temperature change and weight change (I.C.R. mice; [22]): no body distinct temperature change nor weight loss were observed | death (I.C.R. mice; [22]): no mice died

1-(isopropyloxycarbonyloxy)ethyl(1R,5S,6S)-2-[(1-(4-fluorobenzyl)azetidin-3-yl)thio]-6-[(R)-1-hydroxyethyl]-1-methyl-carbapen-2-em-3-carboxylate [Example 2]
ratio of oral/subcutaneous AUCs [1]: about 54% | Cmax (maximum blood concentration) ([1]; PO): 72.8 µg/mL | T1/2 (half time of blood concentration) ([1]; PO): 1.15 h | Tmax (time at the point of maximum blood concentration) ([1]; PO): 1.00 h | AUC (area under blood concentration curve) ([1]; PO): 94800 ng·h/mL | Cmax (maximum blood concentration) ([1]; SC): 66.4 µg/mL | T1/2 (half time of blood concentration) ([1]; SC): 3.92 h | Tmax (time at the point of maximum blood concentration) ([1]; SC): 0.75 h | AUC (area under blood concentration curve) ([1]; SC): 174000 ng·h/mL

CC(OC(=O)OC1CCCCC1)OC(=O)C1=C(SC2CN(Cc3ccc(F)cc3)C2)[C@H](C)[C@@H]2[C@@H]([C@@H](C)O)C(=O)N12 (stereo partly drawn) [Example 3, 1-(cyclohexyloxycarbonyloxy)ethyl(1R,5S,6S)-2-[(1-(4-fluorobenzyl)azetidin-3-yl)thio]-6-[(R)-1-hydroxyethyl]-1-methyl-carbapen-2-em-3-carboxylate]
ratio of oral/subcutaneous AUCs [1]: about 113% | Cmax (maximum blood concentration) ([1]; PO): 39.0 µg/mL | T1/2 (half time of blood concentration) ([1]; PO): 1.43 h | Tmax (time at the point of maximum blood concentration) ([1]; PO): 0.59 h | AUC (area under blood concentration curve) ([1]; PO): 64500 ng·h/mL | Cmax (maximum blood concentration) ([1]; SC): 16.2 µg/mL | T1/2 (half time of blood concentration) ([1]; SC): 1.05 h | Tmax (time at the point of maximum blood concentration) ([1]; SC): 2.50 h | AUC (area under blood concentration curve) ([1]; SC): 56900 ng·h/mL

C[C@@H](O)[C@H]1C(=O)N2C(C(=O)O)=C(SC3CN(Cc4ccc(F)cc4)C3)[C@H](C)[C@H]12 [Preparation Example 4, (1R,5S,6S)-2-[(1-(4-fluorobenzyl)azetidin-3-yl)thio]-6-[(R)-1-hydroxyethyl]-1-methyl-carbapen-2-em-3-carboxylic acid]
MIC [3]: 0.03-0.12 | MIC [4]: 0.06-0.25 | MIC [5]: 0.006-0.12 | MIC [6]: 0.049-0.391 | MIC [7]: 0.025-3.125 | MIC (Escherichia coli (4)): 0.025-0.098 | MIC [8]: <0.008-0.25 | MIC [9]: 0.013-0.025 | Cmax (maximum blood concentration) ([1]; PO): 3.97 µg/mL | T1/2 (half time of blood concentration) ([1]; PO): 1.32 h | Tmax (time at the point of maximum blood concentration) ([1]; PO): 0.56 h | AUC (area under blood concentration curve) ([1]; PO): 8280 ng·h/mL | Cmax (maximum blood concentration) ([1]; SC): 68.5 µg/mL | T1/2 (half time of blood concentration) ([1]; SC): 0.76 h | Tmax (time at the point of maximum blood concentration) ([1]; SC): 0.38 h | AUC (area under blood concentration curve) ([1]; SC): 83240 ng·h/mL | MIC [10]: 0.002 µg/mL (≈ 0.00492 µM) | MIC [11]: 0.049 µg/mL (≈ 0.121 µM) | MIC [12]: 0.049 µg/mL (≈ 0.121 µM) | MIC [13]: 0.122 µg/mL (≈ 0.301 µM) | MIC [14]: < 0.008 µg/mL | MIC (GBBS ATCC 12386): 0.03 µg/mL (≈ 0.0738 µM) | MIC [15]: < 0.008 µg/mL | MIC [16]: 0.03 µg/mL (≈ 0.0738 µM) | MIC [17]: 0.12 µg/mL (≈ 0.295 µM) | MIC (Klebsiella oxytoca 1082): 0.049 µg/mL (≈ 0.121 µM) | MIC [18]: 1.56 µg/mL (≈ 3.85 µM) | MIC [19]: 2 µg/mL (≈ 4.92 µM) | MIC [20]: 0.015 µg/mL (≈ 0.0369 µM)

C[C@@H](O)[C@H]1C(=O)N2C(C(=O)OCOC(=O)C(C)(C)C)=C(SC3CN(Cc4ccc(F)cc4)C3)[C@H](C)[C@H]12.O=C(O)/C=C/C(=O)O [Example 17, Fumaric Acid Salt of pivaloyloxymethyl(1R,5S,6S)-2-[(1-(4-fluorobenzyl)azetidin-3-yl)thio]-6-[(R)-1-hydroxyethyl]-1-methyl-carbapen-2-em-3-carboxylate]
body temperature change and weight change (I.C.R. mice; [22]): no body distinct temperature change nor weight loss were observed | death (I.C.R. mice; [22]): no mice died
